What all share (format): cell-based
The target in assay [1] is T1, IDO1 (Homo sapiens, UniProt P14902). Put plainly: IDO1 HEK293 cellular assay. The following applies: HEK293 cells transfected with Flag-IDO1 vector, 20-24 hours, fluorescence readout. As to the method:
IDO1 HEK293 Cellular Assay
Compounds to be tested were serially diluted in ten 3-fold steps in DMSO starting from 10 mM DMSO stocks. Compound dilutions or DMSO alone were then dispensed from the dilution plate into a Greiner black 384-well assay plate (catalog #781086) using an Echo 550 acoustic liquid handler (Labcyte).
HEK293 cell pellets were resuspended to 5×10^5 cells/mL in complete HEK293 culture media (89% DMEM, 10% FBS, 1% penicillin/streptomycin). Suspended cells (2 mL) were dispensed into each well of a 6-well Corning plate (Catalog # 3516). Cells were allowed to attach and were incubated for 20 hours at 37° C. in a 5% CO2 incubator. Flag-IDO1 vector (Genscript True ORF Gold, 2 ug) in 150 uL of Opti-MEM medium was added to each well of a Corning 24 well plate (Cat # 3527) and incubated for 5 minutes at room temperature. To each well of the 24-well plate was added […] Lipofectamine 2000 (Gibco) and the plate incubated at room temperature for 20-30 minutes. To each well of attached cells in the 6-well plate, […] of the transfection mix from the 24-well plate was gently added to each well and IDO1 protein was allowed to express for 24-30 hours at 37 degrees Celsius in a 5% CO2 incubator.
Media was removed from the cells which were then washed with 2 mL Dulbecco's phosphate-buffered saline (DPBS). After removal of DPBS, 0.5 mL of TrypLE (Gibco) was added and incubated at 5 minutes until cells lift from the surface of the wells. Complete HEK293 culture media (4 mL) was added to each well and cells were collected and pooled into a conical tube. Cells were pelleted at 200×g for 5 minutes and resuspended in an equal volume of complete DMEM medium. Cells were diluted to 4×10^5 cells per mL in complete HEK293 media. L-Tryptophan was added to added to give a final concentration of […]. The diluted transfected cells […] or nontransfected cells […] were dispensed into wells of Greiner black 384-well assay plates (catalog #781086) containing previously diluted compounds. The plate is briefly mixed and centrifuged at 200×g for 10 seconds to collect cells at the bottom of the plate. Plates were covered and incubated for 20-24 hours at 37 degrees C. in a 5% CO2 incubator. Afterwards […] of 0.5 M methyl isonipecotate in dimethyl sulfoxide was added to each well, mixed, sealed, and centrifuged at 500 rpm for 10 seconds. Plates were incubated at 37 degrees in a 5% CO2 incubator overnight to develop fluoresence. The plates are allowed to cool and then centrifuged for 1 minute at 1000×g. The resulting fluoresence was measured in an Envision plate reader (Perkin Elmer) with a 400/25 nm excitation filter and an 510/20 nm emission filter.
The fluoresence intensity of each well was corrected for the background observed in wells with untransfected cells and was expressed as a fraction of the intensity observed in wells of IDO1 transfected cells and DMSO only. Potencies were calculated by linear least squares fit to the four parameter logistic IC50 equation.

The target in assay [2] is T2, TDO (Homo sapiens, UniProt P48775).
T2 construct: endogenous in cells; host or cells: SW48 cells (A2780 cells as low-TDO control)
In words: TDO cellular assay in frozen SW48 cells. Particulars: 300 uM L-tryptophan, about 48 hours, fluorescence readout. The procedure: TDO Cellular Assay in Frozen SW48 Cells
SW48 cells were cultured in complete RPMI culture medium (90% RPMI, 10% heat-inactivated fetal bovine serum).
Compounds to be tested were serially diluted in ten 3-fold steps in DMSO starting from 10 mM DMSO stocks in Echo low volume plate(s). […] The cells were spun down at 350 g in a table top centrifuge for 5 minutes and suspended in same volume of RPMI assay medium. […] Sterile L-tryptophan (Sigma, Cat #T0254) was added to the cells with final concentration of 300 uM.
SW48 and A2780 cells were dispensed to the respective wells of 384-well assay plates containing the compounds. The plates were incubated for about 48 hours at a 37° C., 5% CO2 incubator. Afterwards, 12 μL of 0.5 M ethyl isonipecotate (Sigma Aldrich, Cat #E33505) in dimethyl sulfoxide were added into each well and the plates were sealed and incubated at 37° C. without CO2 overnight. The plates were centrifuged for 1 minute at 200×g. The resulting fluorescence was measured in a Spectramax plate reader (Molecular Devices) with a 400 nm excitation filter and a 510 nm emission filter.
The fluorescence intensity of each well was corrected for the background observed in wells with A2780 cells and was expressed as a fraction of the intensity observed in wells of SW48 cells and DMSO only. Potencies were calculated by linear least squares fit to the four parameter logistic IC50 equation.

Assay [3] has as its target T1, IDO1. Put plainly: IDO1 cellular assay in Hela cells stimulated with IFNγ. The following applies: IFNγ 100 ng/mL, 300 uM L-tryptophan, about 48 hours, fluorescence readout. As to the method:
IDO1 Cellular Assay in Hela Cells Stimulated with IFNγ
Hela cells were cultured in complete Hela culture medium (90% EMEM, 10% heat-inactivated fetal bovine serum) and expanded to about 1×10^9 cells. The cells were then collected and frozen down at 1×10^7 cells/vial in 1 mL frozen medium (90% complete Hela culture medium, 10% DMSO)
Compounds to be tested were serially diluted in ten 3-fold steps in DMSO starting from 10 mM DMSO stocks in Echo low volume plate(s).
Frozen Hela cells were thawed and transferred into Hela assay medium (99% complete Hela culture medium, 1% Pen/Strep) with 20 mL medium/vial of cells. The cells were spun down at 250 g in a table top centrifuge for 5 min and suspended in same volume of Hela assay medium. […] Sterile L-tryptophan were added to the cells with final concentration of 300 uM L-tryptophan. A small aliquot (2 mL/plate) of Hela cells were set aside and were not treated with IFNγ, to serve as the Max-E control.
Hela cells with and without IFNγ were dispensed to the respective wells of 384-well assay plates containing the compounds. The plates were incubated for about 48 hours at a 37° C., 5% CO2 incubator. Afterwards, […] of 0.5 M methyl isonipecotate in dimethyl sulfoxide were added into each well and the plates were sealed and incubated at 37° C. without CO2 overnight. The plates were centrifuged for 1 min at 200×g. The resulting fluorescence was measured in a Spectramax plate reader (Molecular Devices) with a 400 nm excitation filter and a 510 nm emission filter.
Potencies were calculated by linear least squares fit to the four parameter logistic IC50 equation.

T1 sequence (P14902 whole entry): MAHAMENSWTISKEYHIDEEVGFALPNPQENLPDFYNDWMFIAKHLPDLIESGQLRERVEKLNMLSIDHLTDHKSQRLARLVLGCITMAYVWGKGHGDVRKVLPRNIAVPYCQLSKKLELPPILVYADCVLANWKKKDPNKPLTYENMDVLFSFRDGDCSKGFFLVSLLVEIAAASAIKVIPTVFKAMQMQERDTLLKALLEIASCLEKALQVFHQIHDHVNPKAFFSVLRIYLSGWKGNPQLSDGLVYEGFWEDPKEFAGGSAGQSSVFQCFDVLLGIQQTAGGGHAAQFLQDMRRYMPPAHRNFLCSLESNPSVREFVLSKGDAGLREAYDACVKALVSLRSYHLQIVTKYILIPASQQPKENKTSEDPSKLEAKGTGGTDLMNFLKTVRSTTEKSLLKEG
T2 sequence (P48775 whole entry): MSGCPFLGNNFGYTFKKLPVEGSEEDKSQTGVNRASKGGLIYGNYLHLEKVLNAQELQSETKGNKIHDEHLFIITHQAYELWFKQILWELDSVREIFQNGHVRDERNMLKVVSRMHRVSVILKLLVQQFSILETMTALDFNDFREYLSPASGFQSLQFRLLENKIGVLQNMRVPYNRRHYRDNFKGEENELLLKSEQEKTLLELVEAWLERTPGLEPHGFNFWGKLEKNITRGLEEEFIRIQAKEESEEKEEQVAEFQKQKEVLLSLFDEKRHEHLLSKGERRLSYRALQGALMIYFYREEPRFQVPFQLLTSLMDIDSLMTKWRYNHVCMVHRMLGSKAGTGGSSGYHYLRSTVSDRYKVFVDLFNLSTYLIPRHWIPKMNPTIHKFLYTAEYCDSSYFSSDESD

Turning to `O=C(CC1CC1)Nc1ccc(C2(C(=O)Nc3ccc(F)cc3)CCC2)cn1` [Example 30, 1-{6-[(cyclopropylacetyl)amino]pyridin-3-yl}-N-(4-fluorophenyl)cyclobutane-1-carboxamide], the IC50 (usually the concentration needed to halve the response being measured) in assay [1] is 70 nM; in assay [2], at least 10000 nM; in assay [3], 83 nM.

Take `CC(C)CC(=O)Nc1ccc(C2(C(=O)Nc3ccc(F)cc3)CCC2)cn1` [Example 27, N-(4-fluorophenyl)-1-{6-[(3-methylbutanoyl)amino]pyridin-3-yl}cyclobutane-1-carboxamide]: the IC50 in assay [1] is 28 nM; in assay [2] it was at least 10000 nM; in assay [3], 25 nM.

Consider `O=C(CCC(F)(F)F)Nc1ccc(C2(C(=O)Nc3ccc(F)cc3)CCC2)cn1` [Example 5, N-(4-fluorophenyl)-1-(6-(4,4,4-trifluorobutanamido)pyridin-3-yl)cyclobutane-1-carboxamide], for which the IC50 in assay [1] was 76 nM; in assay [2], at least 10000 nM; in assay [3], 72 nM.

Take `O=C(Nc1ccc(C2(C(=O)Nc3ccc(F)cc3)CCC2)cn1)C1CCOCC1` [Example 20, N-(5-{1-[(4-fluorophenyl)carbamoyl]cyclobutyl}pyridin-2-yl)oxane-4-carboxamide]: the IC50 in assay [1] was 156 nM; in assay [2], at least 10000 nM; in assay [3] it was 138 nM.

In the case of `O=C(Nc1ccc(C2(C(=O)Nc3ccc(F)cc3)CCC2)cn1)C1CCCOC1` (stereo not drawn) [Example 22, N-(5-{1-[(4-fluorophenyl)carbamoyl]cyclobutyl}pyridin-2-yl)oxane-3-carboxamide], the IC50 in assay [1] was 123 nM; in assay [2], at least 10000 nM; in assay [3], 154 nM.

On to `O=C(CCC1CC1)Nc1ccc(C2(C(=O)Nc3ccc(F)cc3)CCC2)cn1` [Example 18, 1-{6-[(3-cyclopropylpropanoyl)amino]pyridin-3-yl}-N-(4-fluorophenyl)cyclobutane-1-carboxamide], for which the IC50 is 32 nM in assay [1], at least 10000 nM in assay [2] and 29 nM in assay [3].

Regarding `O=C(Nc1ccc(C2(C(=O)Nc3ccc(F)cc3)CCC2)cn1)C1CCCC(F)(F)C1` (stereo not drawn) [Example 17, 3,3-difluoro-N-(5-{1-[(4-fluorophenyl)carbamoyl]cyclobutyl}pyridin-2-yl)cyclohexane-1-carboxamide], the IC50 was 26 nM in assay [1], at least 10000 nM in assay [2] and 28 nM in assay [3].

These data come from patent publication US11111232B2, “Substituted cyclobutylpyridine and cyclobutylpyrimidine compounds as indoleamine 2,3-dioxygenase (IDO) inhibitors” (MERCK SHARP & DOHME CORP., priority 2017, dated 2021).
